Data published in patent US8173133B2, “Acyl pseudodipeptides which carry a functionalized auxiliary arm” (OM Pharma, priority 1999, dated 2012).
≈ marks a conversion by molar mass, not a printed value.

Legend:
bone marrow stem cells = test: bone marrow stem cell proliferation (XTT); assay type: cell-based, C57/BL6 mice; conditions: for Max amplitude: 7 days, XTT 492 nm; for Min amplitude: blank ± 3× standard deviation; for Max concentration: concentration at maximum amplitude; for EC50 conc: concentration corresponding to 50% of maximum amplitude; for Min concentration: lowest concentration inducing a significant proliferation
From the text: 6-week old male C57/BL6 mice are killed by CO2 inhalation. The hip, femur, tibia and hind leg bones are removed. The marrow is extracted from the bone lumen by injecting Dulbecco's Modified Eagle Medium (DH medium) from the end portions which had been excised. The stem cells are washed and suspended again in DH medium supplemented with 20% foetal calf serum (FCS) The cell concentration is adjusted to 500000 cells/ml.
Products previously dissolved in DH medium supplemented with 20% FCS, amino acids and antibiotics are serially diluted directly into a microtiter plate. The products are tested in triplicate and each microtiter plate includes a negative control containing plain medium. The final volume in each well is 100 μl.
100 μl of the cell suspension are added to diluted solutions of products and the cells are incubated for 7 days in an incubator at 37° C., under 8% CO2 and a moisture saturated atmosphere. Cell proliferation is determined by measuring the […] of a chromogenic substrate XTT (2,3-bis[2-methoxy-4-nitro-5-sulphophenyl]-2H-tetrazolium-5-carboxanilide) in mitochondria of viable cells.
At the end of the incubation period, 50 μl of the XTT substrate solution (1 mg/ml XTT+0.008 mg/ml phenazine methosulfate) are added to each well. After an 8 hour incubation period at 37° C. under 8% CO2 in a moisture saturated incubator, the microtiter plates are read with a spectrophotometer at 492 nm against a reference sample at 690 nm.
Results are expressed as mean value±standard deviation and plotted as a dose versus response curve. Values for a negative control composed of DH medium (mean±standard deviation) are also graphically shown.
From this dose versus response curve, 3 curve variables are computed:
Max: maximum curve amplitude and corresponding concentration
EC50: concentration corresponding to 50% of maximum amplitude
Min: lowest concentration inducing a significant proliferation corresponding to the blank±3× standard deviation value
Concentration values corresponding to EC50 and Min are determined from line segments joining different points on the curve.
If the curve has no plateau phase but an ascending configuration for the highest concentration being tested, a “>” sign is shown before Max and EC50 values.

[1] = tested on: human peripheral blood mononuclear cells; test: α TNF production by human peripheral blood mononuclear cells; assay type: cell-based; conditions: for α TNF produced: 18 hours; for α TNF production: up to 100 μg/ml
Method: Mononuclear cells of peripheral blood are recovered from buffy coats of 6 healthy donors. Such buffy coat cells are resuspended and mononuclear cells are isolated by centrifugation on a Ficoll-Paque gradient (Amersham Pharmacia). Purified mononuclear cells are resuspended into RPMI-1640 medium supplemented with 10% FCS, antibiotics, mercaptoethanol and L-glutamine. Cell concentration is adjusted to 2×10^6 viable cells/ml
100 μl of each one of these solutions of acyl dipeptide-like compounds bearing an accessory functional side chain spacer, diluted 100-, 10- or 1-fold in RPMI medium 1640, are dispensed into a microtiter plate. Samples are tested in triplicates, and each microtiter plate includes a negative control made up of plain medium. Dilutions of E. coli LPS (ranging grom 1 to 0.00001 μg/ml) are used as a positive control.
100 μl of the cell suspension are added to each well containing product dilute solutions or control. Cells are incubated with the products for 18 hours in an incubator at 37° C., under 5% CO2 and a moisture saturated atmosphere.
At the end of the incubation period, microtiter plates are centrifuged, and the supernatant fluids are pooled and frozen at −80° C. as aliquots until time of ELISA assay.
Concentration of α TNF secreted by mononuclear cells is determined by chemiluminescent ELISA (QuantiGlo #QTAOO R&D kit). 4-fold supernatant fluid dilutions are dispensed into each well of the microtiter plate to which anti-αTNF antibodies are bound. The microtiter plate is incubated for 4 hours at room temperature. After washing, peroxidase-conjugated anti-human a TNF antibody is added. Following a 2 hour incubation period and thorough washing, a chemiluminescent substrate is added and chemilunescence is read after 20 minutes. α TNF content in the supernatant fluid is determined with respect to a standard curve covering the 7000 to 0.7 pg/ml range.
Results are expressed in pg/ml of α TNF produced. Results derive from an experiment representative of acyl-dipeptide-like compound activity

Structure (SMILES)	Max amplitude (bone marrow stem cells)	Min amplitude (bone marrow stem cells)	Max concentration (bone marrow stem cells)	EC50 conc (bone marrow stem cells)	Min concentration (bone marrow stem cells)	α TNF produced ([1]; product 1 μg/ml)	α TNF produced ([1]; product 10 μg/ml)	α TNF produced ([1]; product 100 μg/ml)	concentration at which a significant α TNF production level is induced ([1]; only at this concentration)	α TNF production [1]
CCCCCCCCCCCC(=O)O[C@H](CCCCCCCCCCC)CC(=O)NC(CCOP(=O)(O)O)C(=O)NCCCC(COC(=O)CCCCCO)NC(=O)C[C@H](O)CCCCCCCCCCC (stereo partly drawn) [OM-197-FV8, 3-[(R)-3-dodecanoyloxytetradecanoylamino]-4-oxo-5-aza-9-[(R)-3-hydroxytetradecanoylamino]-decan-1,10-diol 1-dihydrogenphosphate 10-(6-hydroxyhexanoate)]	1.07 O.D	0.80 O.D	25 µg/mL	1.8 µg/mL (≈ 1.72 µM)	1.24 µg/mL	12 pg/mL	100 pg/mL	252 pg/mL	–	–
CCCCCCCCCCCC(=O)O[C@H](CCCCCCCCCCC)CC(=O)N[C@H](CC(=O)O)C(=O)NCCC[C@H](COC(=O)CCCCCNC(=O)CCC(=O)O)NC(=O)C[C@H](O)CCCCCCCCCCC [OM-197-MC-AC-Succ, N—[(R)-3-dodecanoyloxytetradecanoyl]-D-aspartic acid, α-N-{(4R)-5-(6-succinylamidohexanoxyloxy)-4[(R)-3-hydroxy-tetradecanoylamino]pentyl}amide]	> 1.65 O.D	0.80 O.D	> 100 µg/mL	33.7 µg/mL (≈ 31.2 µM)	2.04 µg/mL	0 pg/mL	32 pg/mL	40 pg/mL	–	–
CCCCCCCCCCCC(=O)O[C@H](CCCCCCCCCCC)CC(=O)N[C@H](CC(=O)O)C(=O)NCCC[C@H](COC(=O)CCCCCO)NC(=O)C[C@H](O)CCCCCCCCCCC [OM-197-MC-FV7, N—[(R)-3-dodecanoyloxytetradecanoylamino]-D-aspartic acid, α-N-{(4R)-5-hydroxy-4-[(R)-3-hydroxytetradecanoylamino]pentyl}amide 5-O-(6-hydroxyhexanoate)]	> 1.83 O.D	0.80 O.D	> 100 µg/mL	> 33.1 µg/mL	6.58 µg/mL	0 pg/mL	80 pg/mL	76 pg/mL	–	–
CCCCCCCCCCCC(=O)O[C@H](CCCCCCCCCCC)CC(=O)N[C@H](CC(=O)O)C(=O)NCCC[C@H](COP(=O)(O)O)NC(=O)C[C@H](O)CCCCCCCCCCC [OM-197-MC-MP, N—[(R)-3-dodecanoyloxytetradecanoyl]-D-aspartic acid, α-N-{(4R)-5-dihydroxyphosphoryloxy-4-[(R)-3-hydroxytetradecanoyl-amino]pentyl}amide]	> 1.60 O.D	0.80 O.D	> 160 µg/mL	> 6.5 µg/mL	0.77 µg/mL	0 pg/mL	0 pg/mL	72 pg/mL	100 µg/mL	–
CCCCCCCCCCCC(=O)O[C@H](CCCCCCCCCCC)CC(=O)N[C@@H](CCOP(=O)(O)O)C(=O)NCCC[C@H](COC(=O)CCCCCO)NC(=O)C[C@H](O)CCCCCCCCCCC [OM-197-MP-AC (S, R), (3S,9R)-3-[(R)-3-dodecanoyloxytetradecanoylamino]-4-oxo-5-aza-9-[(R)-3-hydroxytetradecanoylamino]-1,10-diol 1-dihydrogenphosphate 10-(6-hydroxyhexanoate)]	1.22 O.D	0.80 O.D	6.25 µg/mL	2.62 µg/mL (≈ 2.5 µM)	1.17 µg/mL	488 pg/mL	124 pg/mL	80 pg/mL	–	–
CCCCCCCCCCC[C@@H](O)CC(=O)N[C@H](CCCNC(=O)[C@@H](CC(=O)O)NC(=O)C(CCCCCC)OC(=O)CCCCCCCCC)COC(=O)CCCCCN (stereo partly drawn) [OM-197-N′(C10-20C8)-MC-AC, N-(2-decanoyloxyoctanoyl)-D-aspartic acid, α-N-{(4R)-5-(6-aminohexanoyloxy)-4-[(R)-3-hydroxytetradecanoylamino]-pentyl}amide]	0.75 O.D	0.80/nd O.D	6.25 µg/mL	–	–	0 pg/mL	0 pg/mL	0 pg/mL	–	do not induce any αTNF production
CCCCCCCCCCC[C@@H](O)CC(=O)N[C@H](CCCNC(=O)[C@@H](CC(=O)O)NC(C)=O)COC(=O)CCCCCN [OM-197-N′C2-MC-AC, N-acetyl-D-aspartic acid, α-N-{(4R)-5-(6-aminohexanoyloxy)-4-[(R)-3-hydroxytetradecanoylamino]-pentyl}amide]	0.75 O.D	0.80/nd O.D	1.56 µg/mL	–	–	0 pg/mL	0 pg/mL	0 pg/mL	–	do not induce any αTNF production
